Values joined by “and” are separate entries in the source; they are usually repeats but may differ in a detail not shown here. Equal values may be shown once. Read-outs that look alike come from different tables or passages of the source.
Tests used:
[1] = Phase 1/2 study: plasma pharmacokinetics of Compound (I) in patients (LC-MS/MS, non-compartmental analysis); assay type: in vivo, human
Method: The following example presents a phase 1/2 study of Compound (I) in patients with solid tumors harboring GNAQ/11 mutations or PRKC fusions.
Patients with MUM were sequentially enrolled into Cohort 1 or Cohort 2. Enrollment into Cohort 2 was not initiated until enrollment into Cohort 1 was completed and the dose considered safe. • a. Cohort 1. 6 patients were sequentially enrolled and received 300 mg twice a day (BID), daily, for 28-day treatment cycles. • b. Cohort 2. 6 patients were sequentially enrolled and received 400 mg BID, preceded by an initial 7-day 200 mg BID run-in period, for 28-day treatment cycles. All patients continue to receive treatment with Compound (I) unless the subject experiences one or more of the following: • Adverse event • Lost to follow-up • Physician decision • Progressive disease • Study termination by the Sponsor • Patient/guardian decision • Protocol deviation • Non-compliance with protocol • Death • Pregnancy NUMBER OF SUBJECTS: 12 patients
The following example presents pharmacokinetic results from the study as described in Example 1.
Blood samples were collected on Cycle 1 Day 1 and Day 15 from patients who were administered 300 mg BID of Compound (I), and on Cycle 1 Day 8 and Day 22 from patients who were administered 200 mg BID for 7 days followed by 400 mg BID of Compound (I) for the remainder of the treatment cycle. The plasma samples were processed by protein precipitation (see Ahuja S and Dong M. W, Handbook of Pharmaceutical Analysis by HPLC, Elsevier Inc., Chapter 17, page 433, 2005) and analyzed using an LC-MS/MS method; Quantification was achieved using Compound (I) peak area to internal standard (3-amino-N-(3-(4-amino-4-(methyl-d3)piperidin-1-yl)pyridin-2-yl)-6-(3-(trifluoromethyl)pyridin-2-yl)pyrazine-2-carboxamide) peak area ratios. Concentrations of the calibration curve standards, quality control samples, and patient samples were determined by the method of 1/x^2 weighted least squares linear regression.
The Pharmacokinetic parameters were calculated using Phoenix WinNonlin software (non-compartmental analysis).

[2] = Hypotension studies: adverse events, single-agent Compound (I), 300 mg BID vs 400 mg BID with 7-day 200 mg run-in (Tables 6, 7); assay type: in vivo
Source text: Patients with MUM were sequentially enrolled into Cohort 1 or Cohort 2. Enrollment into Cohort 2 was not initiated until enrollment into Cohort 1 was completed and the dose considered safe. • a. Cohort 1. […] Cohort 2. […] All patients continue to receive treatment with Compound (I) unless the subject experiences one or more of the following: • Adverse event • Lost to follow-up • Physician decision • Progressive disease • Study termination by the Sponsor • Patient/guardian decision • Protocol […]

[3] = cited from earlier work; for Dose limiting toxicities (DLTs): evaluable patients
[4] = individual patients, 300 mg BID, C1 Day 15
[5] = individual patients, 400 mg BID with 200 mg run-in
[6] = individual patients, 400 mg BID with 200 mg run-in, C1 Day 8
[7] = individual patients, 400 mg BID with 200 mg run-in, C1 Day 22
[8] = 300 mg BID, N = 26, regardless of study drug relationship
[9] = 400 mg BID with 7-day 200 mg run-in, N = 30
[10] = 400 mg BID with 7-day 200 mg run-in, N = 30, regardless of study drug relationship
[11] = All Patients, N = 56, regardless of study drug relationship

With `CC1(N)CCN(c2cccnc2NC(=O)c2nc(-c3ncccc3C(F)(F)F)cnc2N)CC1` [Compound (I), 3-amino-N-(3-(4-amino-4-methylpiperidin-1-yl)pyridin-2-yl)-6-(3-(trifluoromethyl)pyridin-2-yl)pyrazine-2-carboxamide] the AUC0-12 [1, 4] was 19049 ng·h/mL and 15640 ng·h/mL and 5511 ng·h/mL and 15071 ng·h/mL and 21194 ng·h/mL and 23600 ng·h/mL and 19185 ng·h/mL and 17909 ng·h/mL and 10949 ng·h/mL and 24582 ng·h/mL and 28493 ng·h/mL and 16155 ng·h/mL and 13083 ng·h/mL, the Cmax [1, 4] was 3965 ng/mL and 2149 ng/mL and 1392 ng/mL and 3079 ng/mL and 2984 ng/mL and 3442 ng/mL and 2782 ng/mL and 2574 ng/mL and 2969 ng/mL and 3618 ng/mL and 4203 ng/mL and 2348 ng/mL and 2971 ng/mL and the Tmax [1, 4] was 0.5 h and 1 h and 2 h. The “AUC ratio D22/D8” value [1, 5] was 1.3 (3×) and 1.1 (2×) and 0.84 and 0.66 and 0.75 and 1.0 (3×) and 0.85 and 0.95 and 0.59 and 0.88 and 1.5 and 0.42 and 1.2 and 0.64 and 0.70 and 1.4, the “Cmin on C1D22” value [1, 5] was 1019 ng/mL and 969 ng/mL and 931 ng/mL and 497 ng/mL and 533 ng/mL and 674 ng/mL and 916 ng/mL and 777 ng/mL and 179 ng/mL and 1631 ng/mL and 334 ng/mL and 1110 ng/mL and 264 ng/mL and 3140 ng/mL and 1082 ng/mL and 1887 ng/mL and 478 ng/mL and 1912 ng/mL and 1592 ng/mL and 2909 ng/mL and 677 ng/mL and the AUC0-12 [1, 6] was 17779 ng·h/mL and 19720 ng·h/mL and 22367 ng·h/mL and 23416 ng·h/mL and 16365 ng·h/mL and 28796 ng·h/mL and 13072 ng·h/mL and 56156 ng·h/mL and 22089 ng·h/mL and 23178 ng·h/mL and 18745 ng·h/mL and 6311 ng·h/mL and 38119 ng·h/mL and 13309 ng·h/mL and 22361 ng·h/mL and 10348 ng·h/mL and 32689 ng·h/mL and 48672 ng·h/mL and 23856 ng·h/mL and 17650 ng·h/mL and 43163 ng·h/mL and 23378 ng·h/mL and 30601 ng·h/mL and 13604 ng·h/mL. For the same compound, the Cmax [1, 6] was 2068 ng/mL and 2948 ng/mL and 2077 ng/mL and 7600 ng/mL and 2121 ng/mL and 2580 ng/mL and 1949 ng/mL and 7450 ng/mL and 3838 ng/mL and 6560 ng/mL and 4478 ng/mL and 1922 ng/mL and 6872 ng/mL and 4037 ng/mL and 2949 ng/mL and 2603 ng/mL and 3474 ng/mL and 7043 ng/mL and 2520 ng/mL and 2531 ng/mL and 4952 ng/mL and 4452 ng/mL and 4329 ng/mL and 3053 ng/mL, the Tmax [1, 6] was 2 h and 1 h and 6 h and 0.5 h and 4 h and the AUC0-12 [1, 7] was 22282 ng·h/mL and 21010 ng·h/mL and 18847 ng·h/mL and 15424 ng·h/mL and 12278 ng·h/mL and 13221 ng·h/mL and 18705 ng·h/mL and 20068 ng·h/mL and 6604 ng·h/mL and 36219 ng·h/mL and 7788 ng·h/mL and 19634 ng·h/mL and 10656 ng·h/mL and 48381 ng·h/mL and 20635 ng·h/mL and 28583 ng·h/mL and 11327 ng·h/mL and 30027 ng·h/mL and 32888 ng·h/mL and 38889 ng·h/mL and 18178 ng·h/mL. The Cmax [1, 7] was 2556 ng/mL and 2756 ng/mL and 1709 ng/mL and 5026 ng/mL and 2562 ng/mL and 1911 ng/mL and 2853 ng/mL and 2578 ng/mL and 5948 ng/mL and 2203 ng/mL and 2403 ng/mL and 1992 ng/mL and 5663 ng/mL and 5314 ng/mL and 3276 ng/mL and 4296 ng/mL and 5657 ng/mL and 5617 ng/mL and 3676 ng/mL and 3890 ng/mL, the Tmax [1, 7] was 2 h and 1 h and 6 h and 0.5 h and 4 h and the “mean Cmin at steady state, higher at 400 mg BID (with 200 mg run-in) than at 300 mg BID” value ([1]; steady state) was about 40%. The “mean steady state exposure (200 mg BID 7 days then 400 mg BID) vs 300 mg BID” value ([1]; steady state) was “higher mean steady state exposure”, the “Hypotension, all grades, treatment-emergent, suspected to be study related” value (from here on “Hypotension, all grades … to be study related”) ([2]; 300 mg BID, N = 26) was 1 (3.8) n (%) and the “Hypotension, grade 3/4, treatment-emergent, suspected to be study related” value ([2]; 300 mg BID, N = 26) was 0 n (%). The “Hypotension, all grades” value [2, 8] was 1 (3.8) n (%), the “Hypotension, grade 3/4” value [2, 8] was 0 n (%) and the “Hypotension, all grades … to be study related” value [2, 9] was 2 (6.7) n (%). The “Hypotension, grade 3/4, treatment-emergent, suspected to be study related” value [2, 9] was 0 n (%), the “Hypotension, all grades” value [2, 10] was 4 (13.3) n (%) and the “Hypotension, grade 3/4” value [2, 10] was 0 n (%). For the same compound, the “Hypotension, all grades … to be study related” value ([2]; All Patients, N = 56) was 3 (5.4) n (%), the “Hypotension, grade 3/4, treatment-emergent, suspected to be study related” value ([2]; All Patients, N = 56) was 0 n (%) and the “Hypotension, all grades” value [2, 11] was 5 (8.9) n (%). The “Hypotension, grade 3/4” value [2, 11] was 0 n (%), the “frequency of hypotension at 400 mg BID with 200 mg run-in vs 400 mg BID alone” value ([2]; in vivo) was “less frequently” and the “Dose limiting toxicities (DLTs)” value ([3]; BID schedule) was 2 of 17. For the same compound, the maximum tolerated dose ([3]; BID schedule) was 400 mg BID, the “Dose limiting toxicities (DLTs)” value ([3]; QD schedule) was 7 of 38 and the maximum tolerated dose ([3]; QD schedule) was 500 mg QD. The “most common DLT” value ([3]; human, in vivo) was “hypotension” and the “recommended dose for expansion (RDE)” value ([3]; human, in vivo) was 300 mg BID.

— patent US20220401440A1, “DOSING REGIMENS FOR A PROTEIN KINASE C INHIBITOR” (IDEAYA BIOSCIENCES, INC., priority 2019, published 2022)
